In paper PMC4503722, “Novel Phenotypic Outcomes Identified for a Public Collection of Approved Drugs from a Publicly Accessible Panel of Assays” (PLoS ONE, 2015):
pEC50, pIC50: −log10 of the molar value. Like-named read-outs stand apart in the source and are kept apart here.

Tests used:
HeLa cells = assay: cells; format: cell-based; details: HeLa, HeLa, read-out: CellCycle G2/M
HCT116 = assay: cells; format: cell-based
INS-1E cells = assay: cells; format: cell-based, rat
hp70S6K1 (RPS6KB1) = molecular target: T1, hp70S6K1 (RPS6KB1) (Homo sapiens, UniProt P23443); assay: Cerep LANCE kinase assay hp70S6K1 (S1 assay 31); format: biochemical; details: read-out: p70S6K1
T1 construct: purchased Cerep (LANCE kinase assay platform, contract assay)

NCI-H716 cells = assay: cells; format: cell-based, Human
[1] = system: endothelial tube formation in co-cultures of ECFCs and ADSCs treated with VEGF; assay: cells; format: cell-based, human
hFLT3 = molecular target: T2, hFLT3 (Homo sapiens, UniProt P36888); assay: Cerep LANCE kinase assay hFLT3 (S1 assay 35); format: biochemical; details: read-out: FLT3
T2 construct: purchased Cerep (LANCE kinase assay platform, contract assay)

DLD-1 = assay: cells; format: cell-based
hGSK3b = molecular target: T3, hGSK3b (Homo sapiens, UniProt P49841); assay: Cerep LANCE kinase assay hGSK3b (S1 assay 34); format: biochemical; details: read-out: GSK3b
T3 construct: purchased Cerep (LANCE kinase assay platform, contract assay)

SW480 = assay: cells; format: cell-based
hKDR = molecular target: T4, hKDR (Homo sapiens, UniProt P35968); assay: Cerep LANCE kinase assay hKDR (S1 assay 32); format: biochemical
T4 construct: purchased Cerep (LANCE kinase assay platform, contract assay)

hJAK2 = molecular target: T5, hJAK2 (Homo sapiens, UniProt O60674); assay: Cerep LANCE kinase assay hJAK2 (S1 assay 33); format: biochemical; details: read-out: JAK2
T5 construct: purchased Cerep (LANCE kinase assay platform, contract assay)

[2] = system: HCT116 cells treated with a GSK3β inhibitor; assay: cells; format: cell-based
[3] = system: nuclear β-catenin in C2C12 cells; assay: cells; format: cell-based
[4] = Homo sapiens, HCT-116, basal, read-out: Basal_Viability ATP HCT116
[5] = Rattus norvegicus; IC50 / EC50; INS-1E; read-out: Insulin Secretion
[6] = Homo sapiens; IC50 / EC50; NCI-H716; read-out: GLP 1 Secretion
[7] = Homo sapiens, IC50 / EC50; endothelial tube area, ADSC/ECFC co-culture; read-out: Anti-Angiogenesis
[8] = Homo sapiens, DLD-1, basal, read-out: Basal_Viability ATP DLD-1
[9] = Homo sapiens, SW480, basal, read-out: Basal_Viability ATP SW480
[10] = Homo sapiens, HCT-116, read-out: GSK3b inh pretreated_Viability ATP HCT116
[11] = Mus musculus, C2C12, IC50 / EC50; C2C12 beta-catenin translocation; read-out: Wnt Pathway
[12] = Homo sapiens, HCT-116, read-out: Basal_Viability ATP HCT116
[13] = Rattus norvegicus, INS-1E, read-out: Insulin Secretion
[14] = Homo sapiens, NCI-H716, read-out: GLP 1 Secretion
[15] = Homo sapiens, read-out: Anti-Angiogenesis
[16] = Homo sapiens, DLD-1, read-out: Basal_Viability ATP DLD-1
[17] = Homo sapiens, SW480, read-out: Basal_Viability ATP SW480
[18] = Mus musculus, C2C12, read-out: Wnt Pathway

T1 sequence (P23443 whole entry): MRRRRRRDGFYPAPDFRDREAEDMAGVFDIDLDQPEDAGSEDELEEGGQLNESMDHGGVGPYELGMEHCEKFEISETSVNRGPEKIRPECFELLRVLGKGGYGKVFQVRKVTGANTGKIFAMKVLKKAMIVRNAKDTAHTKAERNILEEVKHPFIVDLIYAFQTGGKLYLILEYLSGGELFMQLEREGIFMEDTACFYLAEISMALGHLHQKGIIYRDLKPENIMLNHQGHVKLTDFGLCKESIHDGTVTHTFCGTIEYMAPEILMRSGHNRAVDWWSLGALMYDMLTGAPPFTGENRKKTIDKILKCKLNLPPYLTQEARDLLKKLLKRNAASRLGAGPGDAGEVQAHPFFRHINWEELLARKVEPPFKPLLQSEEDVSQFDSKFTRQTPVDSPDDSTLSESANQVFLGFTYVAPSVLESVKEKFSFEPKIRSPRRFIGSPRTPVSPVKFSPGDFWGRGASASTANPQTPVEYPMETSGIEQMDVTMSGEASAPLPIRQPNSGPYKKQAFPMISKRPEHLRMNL
T5 sequence (O60674 whole entry): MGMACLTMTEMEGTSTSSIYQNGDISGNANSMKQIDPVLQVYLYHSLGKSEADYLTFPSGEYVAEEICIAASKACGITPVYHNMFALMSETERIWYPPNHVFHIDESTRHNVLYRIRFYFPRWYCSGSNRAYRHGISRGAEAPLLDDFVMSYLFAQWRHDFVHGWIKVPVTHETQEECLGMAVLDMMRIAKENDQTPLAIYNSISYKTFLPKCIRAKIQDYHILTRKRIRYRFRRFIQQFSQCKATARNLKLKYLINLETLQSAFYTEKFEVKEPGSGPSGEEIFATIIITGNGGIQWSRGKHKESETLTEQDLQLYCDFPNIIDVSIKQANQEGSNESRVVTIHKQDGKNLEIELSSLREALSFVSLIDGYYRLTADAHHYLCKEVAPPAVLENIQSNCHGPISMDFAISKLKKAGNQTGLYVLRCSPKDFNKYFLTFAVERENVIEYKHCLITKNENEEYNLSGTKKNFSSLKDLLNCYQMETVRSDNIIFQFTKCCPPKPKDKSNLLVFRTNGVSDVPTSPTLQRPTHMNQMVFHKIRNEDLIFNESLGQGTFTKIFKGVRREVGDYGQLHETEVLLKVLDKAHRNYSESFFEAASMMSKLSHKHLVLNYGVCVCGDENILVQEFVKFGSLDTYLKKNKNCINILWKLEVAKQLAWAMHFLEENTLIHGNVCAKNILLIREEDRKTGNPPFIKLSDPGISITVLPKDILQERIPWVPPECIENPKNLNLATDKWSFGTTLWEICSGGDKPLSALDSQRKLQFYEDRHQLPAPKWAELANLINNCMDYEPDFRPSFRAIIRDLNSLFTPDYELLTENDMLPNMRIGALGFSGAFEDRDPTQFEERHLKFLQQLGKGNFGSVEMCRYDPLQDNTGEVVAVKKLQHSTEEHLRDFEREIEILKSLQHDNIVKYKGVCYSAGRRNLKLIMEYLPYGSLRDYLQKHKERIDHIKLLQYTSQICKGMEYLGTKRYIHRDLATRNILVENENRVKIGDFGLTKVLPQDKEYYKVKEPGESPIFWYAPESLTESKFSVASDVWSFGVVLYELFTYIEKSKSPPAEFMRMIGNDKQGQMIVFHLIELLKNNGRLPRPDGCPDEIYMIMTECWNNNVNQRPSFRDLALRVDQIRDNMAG
T2 sequence (P36888 27-993): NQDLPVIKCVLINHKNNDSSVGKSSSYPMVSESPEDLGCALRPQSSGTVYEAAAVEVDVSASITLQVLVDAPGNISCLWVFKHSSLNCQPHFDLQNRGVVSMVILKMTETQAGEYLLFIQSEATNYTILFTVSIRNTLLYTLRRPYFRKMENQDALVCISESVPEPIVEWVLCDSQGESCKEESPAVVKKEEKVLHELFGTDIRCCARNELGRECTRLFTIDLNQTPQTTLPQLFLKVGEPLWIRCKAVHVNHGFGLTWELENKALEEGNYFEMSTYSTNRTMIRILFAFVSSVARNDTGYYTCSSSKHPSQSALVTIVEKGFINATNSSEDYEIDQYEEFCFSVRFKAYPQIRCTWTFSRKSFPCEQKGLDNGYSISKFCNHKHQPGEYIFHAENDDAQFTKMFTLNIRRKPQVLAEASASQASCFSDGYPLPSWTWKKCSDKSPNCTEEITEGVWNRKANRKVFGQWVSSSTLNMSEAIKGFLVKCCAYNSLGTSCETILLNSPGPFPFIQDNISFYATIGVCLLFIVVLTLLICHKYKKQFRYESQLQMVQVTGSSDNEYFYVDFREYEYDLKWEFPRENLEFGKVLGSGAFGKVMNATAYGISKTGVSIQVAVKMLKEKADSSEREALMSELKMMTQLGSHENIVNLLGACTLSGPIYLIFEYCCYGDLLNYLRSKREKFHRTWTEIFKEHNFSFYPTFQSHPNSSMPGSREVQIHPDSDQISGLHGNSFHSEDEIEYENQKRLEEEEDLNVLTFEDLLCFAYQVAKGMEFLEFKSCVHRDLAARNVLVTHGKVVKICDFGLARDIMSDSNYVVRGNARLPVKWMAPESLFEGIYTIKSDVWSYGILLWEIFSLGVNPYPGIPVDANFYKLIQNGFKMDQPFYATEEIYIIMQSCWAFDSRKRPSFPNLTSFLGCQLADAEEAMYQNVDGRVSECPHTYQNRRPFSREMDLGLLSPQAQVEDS
T4 sequence (P35968 20-1356): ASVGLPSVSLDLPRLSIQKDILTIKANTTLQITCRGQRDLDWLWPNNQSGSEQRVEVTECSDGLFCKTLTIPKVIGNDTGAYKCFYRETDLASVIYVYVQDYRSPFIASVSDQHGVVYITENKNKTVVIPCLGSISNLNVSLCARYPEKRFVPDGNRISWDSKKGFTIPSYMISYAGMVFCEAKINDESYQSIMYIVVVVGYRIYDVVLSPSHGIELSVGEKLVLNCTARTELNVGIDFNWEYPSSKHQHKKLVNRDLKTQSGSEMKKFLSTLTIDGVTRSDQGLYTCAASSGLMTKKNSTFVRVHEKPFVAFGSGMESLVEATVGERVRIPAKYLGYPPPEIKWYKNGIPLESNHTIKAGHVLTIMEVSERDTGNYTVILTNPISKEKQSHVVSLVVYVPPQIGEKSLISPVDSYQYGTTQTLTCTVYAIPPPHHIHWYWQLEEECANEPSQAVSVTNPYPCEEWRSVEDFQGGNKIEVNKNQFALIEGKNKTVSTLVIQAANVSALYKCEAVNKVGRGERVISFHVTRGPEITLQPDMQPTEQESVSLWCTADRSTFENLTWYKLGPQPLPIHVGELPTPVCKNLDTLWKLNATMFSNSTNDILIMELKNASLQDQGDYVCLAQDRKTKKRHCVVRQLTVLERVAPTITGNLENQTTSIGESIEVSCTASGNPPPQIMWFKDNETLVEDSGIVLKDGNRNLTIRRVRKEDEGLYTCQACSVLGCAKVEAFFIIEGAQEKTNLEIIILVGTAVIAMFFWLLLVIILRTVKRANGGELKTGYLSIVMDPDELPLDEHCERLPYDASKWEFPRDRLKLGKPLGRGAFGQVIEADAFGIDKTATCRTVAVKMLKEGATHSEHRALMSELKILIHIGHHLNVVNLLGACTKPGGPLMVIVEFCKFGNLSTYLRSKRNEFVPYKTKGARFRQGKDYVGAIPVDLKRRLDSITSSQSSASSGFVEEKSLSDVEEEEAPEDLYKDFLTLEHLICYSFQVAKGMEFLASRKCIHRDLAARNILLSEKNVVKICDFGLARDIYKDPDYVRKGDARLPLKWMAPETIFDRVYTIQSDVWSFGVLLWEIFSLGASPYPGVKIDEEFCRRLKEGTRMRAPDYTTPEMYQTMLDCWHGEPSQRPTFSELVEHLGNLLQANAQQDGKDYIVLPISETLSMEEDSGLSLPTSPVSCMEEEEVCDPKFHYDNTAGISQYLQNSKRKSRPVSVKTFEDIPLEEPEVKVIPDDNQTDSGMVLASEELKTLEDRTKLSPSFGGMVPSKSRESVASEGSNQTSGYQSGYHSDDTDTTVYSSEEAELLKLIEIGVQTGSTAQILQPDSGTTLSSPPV
T3 sequence (P49841 whole entry): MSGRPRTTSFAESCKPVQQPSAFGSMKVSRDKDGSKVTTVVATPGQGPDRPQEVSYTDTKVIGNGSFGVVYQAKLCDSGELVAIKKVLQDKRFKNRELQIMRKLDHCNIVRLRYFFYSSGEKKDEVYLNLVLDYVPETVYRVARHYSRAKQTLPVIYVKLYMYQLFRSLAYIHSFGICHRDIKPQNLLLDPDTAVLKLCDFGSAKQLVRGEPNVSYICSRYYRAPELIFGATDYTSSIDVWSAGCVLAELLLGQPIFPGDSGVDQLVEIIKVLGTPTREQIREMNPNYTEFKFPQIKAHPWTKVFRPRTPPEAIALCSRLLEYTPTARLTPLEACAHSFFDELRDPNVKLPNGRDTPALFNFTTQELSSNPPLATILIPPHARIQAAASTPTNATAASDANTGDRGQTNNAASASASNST

Row | Compound | pEC50 (HeLa cells; Homo sapiens, IC50 / EC50) | pIC50 (HCT116; [4]) | pEC50 (INS-1E cells; [5]) | pIC50 (hp70S6K1 (RPS6KB1)) | pEC50 (NCI-H716 cells; [6]) | pIC50 [1, 7] | pIC50 (hFLT3) | pIC50 (DLD-1; [8]) | pIC50 (hGSK3b) | pIC50 (SW480; [9]) | pIC50 (hKDR; read-out: KDR) | pIC50 (hJAK2) | pIC50 [2, 10] | pEC50 [3, 11] | pIC50 (hp70S6K1 (RPS6KB1); kinase assay) | pIC50 (hFLT3; kinase assay) | pIC50 (hGSK3b; kinase assay) | pIC50 (hKDR; kinase assay, read-out: KDR) | pIC50 (hJAK2; kinase assay) | pEC50 (HeLa cells; Homo sapiens) | other results
1 | CC[C@@]1(O)C(=O)OCc2c1cc1n(c2=O)Cc2c-1nc1ccccc1c2/C=N/OC(C)(C)C [Gimatecan] | < 5.00 | 7.18 | < 5.00 | < 4.70 | < 5.00 | 8.70 | < 4.70 | 6.50 | < 4.70 | 6.65 | < 4.70 | < 4.70 | 7.18 | 8.49 | – | – | – | – | – | – | –
2 | CCN(CC)CCNc1ccc(CO)c2sc3ccccc3c(=O)c12 [Hycanthonum] | – | – | – | – | – | – | – | – | – | – | – | – | – | – | 4.77 | < 4.70 | < 4.70 | < 4.70 | < 4.70 | – | pEC50 (HeLa cells; S2 Table, 20 = no response at highest concentration): < 5.00; pIC50 (HCT116; basal, HCT116, read-out: Basal_Viability ATP HCT116): 5.07; pEC50 (INS-1E cells; S2 Table; module primary assay; 20 / 20.1 codes per legend; read-out: Insulin Secretion): < 5.00; pEC50 (NCI-H716 cells; S2 Table; module primary assay; 20 / 20.1 codes per legend; read-out: GLP 1 Secretion): < 5.00; pIC50 ([1]; read-out: Anti-Angiogenesis): 5.08; pIC50 (DLD-1; basal, DLD-1, read-out: Basal_Viability ATP DLD-1): < 4.70; pIC50 (SW480; basal, SW480, read-out: Basal_Viability ATP SW480): 5.16; pIC50 ([2]; HCT116 pretreated with GSK3b inhibitor, read-out: GSK3b inh pretreated_Viability ATP HCT116): < 4.70; pEC50 ([3]; read-out: Wnt Pathway): 5.57
3 | CC(=O)[C@]1(O)Cc2c(O)c3c(c(O)c2[C@@H](O[C@H]2C[C@H](N)[C@H](O)[C@H](C)O2)C1)C(=O)c1ccccc1C3=O [Idarubicin] | – | – | – | – | – | – | – | – | – | – | – | – | 7.00 | – | < 4.70 | < 4.70 | < 4.70 | < 4.70 | < 4.70 | < 5.00 | pIC50 (HCT116; [12]): 7.18; pEC50 (INS-1E cells; [13]): < 5.00; pEC50 (NCI-H716 cells; [14]): < 5.00; pIC50 [1, 15]: 7.68; pIC50 (DLD-1; [16]): 6.41; pIC50 (SW480; [17]): 5.32; pEC50 [3, 18]: 7.00
4 | COC(=O)Nc1nc2ccc(C(=O)c3ccccc3)cc2[nH]1 [Mebendazole] | – | – | – | – | – | – | – | – | – | – | – | – | < 4.70 | – | < 4.70 | < 4.70 | < 4.70 | – | < 4.70 | 7.10 | pIC50 (HCT116; [12]): 5.08; pEC50 (INS-1E cells; [13]): < 5.00; pEC50 (NCI-H716 cells; [14]): < 5.00; pIC50 [1, 15]: 6.43; pIC50 (DLD-1; [16]): 4.99; pIC50 (SW480; [17]): < 4.70; pIC50 (hKDR): 5.84; pEC50 [3, 18]: 6.61
5 | Cc1ccccc1C(=O)Nc1ccc(C(=O)N2CCCC(N(C)C)c3ccccc32)cc1 (stereo not drawn) [Mozavaptan] | < 5.00 | 5.12 | < 5.00 | < 4.70 | < 5.00 | < 5.00 | < 4.70 | 4.89 | < 4.70 | 5.46 | < 4.70 | < 4.70 | < 4.70 | 5.34 | – | – | – | – | – | – | –
6 | COC(=O)Nc1nc2ccc(C(=O)c3cccs3)cc2[nH]1 [Nocodazole] | – | – | – | – | – | – | – | – | – | – | – | – | – | – | < 4.70 | < 4.70 | 4.70 | 5.18 | < 4.70 | – | pEC50 (HeLa cells; Homo sapiens, S2 Table, 20 = no response at highest concentration): 7.66; pIC50 (HCT116; Homo sapiens, HCT-116, basal, HCT116, read-out: Basal_Viability ATP HCT116): 5.97; pEC50 (INS-1E cells; Rattus norvegicus, INS-1E; read-out: Insulin Secretion): < 5.00; pEC50 (NCI-H716 cells; Homo sapiens, NCI-H716; read-out: GLP 1 Secretion): < 5.00; pIC50 ([1]; Homo sapiens; read-out: Anti-Angiogenesis): 6.99; pIC50 (DLD-1; Homo sapiens, DLD-1, basal, DLD-1, read-out: Basal_Viability ATP DLD-1): 5.78; pIC50 (SW480; Homo sapiens, SW480, basal, SW480, read-out: Basal_Viability ATP SW480): < 4.70; pIC50 ([2]; Homo sapiens, HCT-116, HCT116 pretreated with GSK3b inhibitor, read-out: GSK3b inh pretreated_Viability ATP HCT116): 5.95; pEC50 ([3]; Mus musculus, C2C12; read-out: Wnt Pathway): 7.36
